# Data published in ChEMBL document CHEMBL5233249, “Recent advancements in the development of heterocyclic anti-inflammatory agents” (Eur J Med Chem, 2020).
# Columns and labels:
# Rattus norvegicus [1] = test: Anti-ulcerative activity in aspirin induced Wistar rat ulcer model assessed as inhibition of ulcer index at 20 mg/kg,po; type: functional
# Rattus norvegicus [2] = test: Anti-inflammatory activity in Carrageenan-induced paw edema in Wistar albino rat assessed as inhibition of edema measured after 3 hrs relative to control; type: functional
# [3] = Selectivity index, ratio of IC50 for ovine COX1 to IC50 for recombinant human COX2
# Rattus norvegicus [4] = test: Anti-inflammatory activity in Carrageenan-induced paw edema in Wistar rat assessed as inhibition of paw edema; type: functional
# Rattus norvegicus [5] = test: Anti-inflammatory activity in Carrageenan-induced rat paw edema in Wistar rat assessed as increase in paw edema volume relative to control; type: functional
# Rattus norvegicus [6] = test: Anti-inflammatory activity in Carrageenan-induced rat paw edema in Wistar rat assessed as increase in paw edema volume at 1 hr; type: functional
# Rattus norvegicus [7] = test: Anti-inflammatory activity in Carrageenan-induced rat paw edema in Wistar rat assessed as increase in paw edema volume at 4 hr; type: functional
# Rattus norvegicus [8] = test: Anti-inflammatory activity in Carrageenan-induced rat paw edema in Wistar rat assessed as increase in paw edema volume (reference value: 1.66 +/- 0.01); type: functional
# Rattus norvegicus [9] = test: Anti-inflammatory activity in Carrageenan-induced rat paw edema in Wistar rat assessed as increase in paw edema volume at 2 hr relative to control; type: functional
# [10] = target: T1, Prostaglandin G/H synthase 1 (Ovis aries, UniProt P05979); test: Inhibition of ovine COX-1 by EIA method
# T1 sequence (P05979 whole entry): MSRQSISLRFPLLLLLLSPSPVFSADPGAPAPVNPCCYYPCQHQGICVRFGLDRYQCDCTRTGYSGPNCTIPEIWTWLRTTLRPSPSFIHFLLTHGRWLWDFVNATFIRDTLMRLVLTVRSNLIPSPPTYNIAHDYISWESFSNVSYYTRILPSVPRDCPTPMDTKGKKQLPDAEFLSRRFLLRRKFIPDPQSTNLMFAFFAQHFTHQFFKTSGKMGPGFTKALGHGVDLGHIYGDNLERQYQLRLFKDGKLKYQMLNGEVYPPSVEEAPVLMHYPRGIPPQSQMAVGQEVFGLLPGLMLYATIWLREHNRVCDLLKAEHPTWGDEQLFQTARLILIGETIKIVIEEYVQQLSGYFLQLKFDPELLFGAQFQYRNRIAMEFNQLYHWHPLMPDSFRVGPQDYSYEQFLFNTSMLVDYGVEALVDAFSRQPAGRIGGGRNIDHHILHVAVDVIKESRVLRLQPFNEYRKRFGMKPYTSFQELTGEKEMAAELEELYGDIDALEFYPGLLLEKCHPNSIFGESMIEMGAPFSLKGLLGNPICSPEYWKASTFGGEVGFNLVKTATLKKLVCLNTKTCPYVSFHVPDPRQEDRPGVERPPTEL
# Rattus norvegicus [11] = test: Anti-inflammatory activity in Carrageenan-induced rat paw edema in Wistar rat assessed as increase in paw edema volume at 2 hr; type: functional
# Rattus norvegicus [12] = test: Anti-inflammatory activity in Carrageenan-induced rat paw edema in Wistar rat assessed as increase in paw edema volume at 1 hr relative to control; type: functional
# Rattus norvegicus [13] = test: Anti-inflammatory activity in Carrageenan-induced rat paw edema in Wistar rat assessed as increase in paw edema volume at 4 hr relative to control; type: functional
# [14] = target: Prostaglandin G/H synthase 1 (Homo sapiens, UniProt P23219); test: Inhibition of COX-1 (unknown origin) at 40 uM relative to control
# Chain of Prostaglandin G/H synthase 1 (Homo sapiens, UniProt P23219) (P23219 whole entry): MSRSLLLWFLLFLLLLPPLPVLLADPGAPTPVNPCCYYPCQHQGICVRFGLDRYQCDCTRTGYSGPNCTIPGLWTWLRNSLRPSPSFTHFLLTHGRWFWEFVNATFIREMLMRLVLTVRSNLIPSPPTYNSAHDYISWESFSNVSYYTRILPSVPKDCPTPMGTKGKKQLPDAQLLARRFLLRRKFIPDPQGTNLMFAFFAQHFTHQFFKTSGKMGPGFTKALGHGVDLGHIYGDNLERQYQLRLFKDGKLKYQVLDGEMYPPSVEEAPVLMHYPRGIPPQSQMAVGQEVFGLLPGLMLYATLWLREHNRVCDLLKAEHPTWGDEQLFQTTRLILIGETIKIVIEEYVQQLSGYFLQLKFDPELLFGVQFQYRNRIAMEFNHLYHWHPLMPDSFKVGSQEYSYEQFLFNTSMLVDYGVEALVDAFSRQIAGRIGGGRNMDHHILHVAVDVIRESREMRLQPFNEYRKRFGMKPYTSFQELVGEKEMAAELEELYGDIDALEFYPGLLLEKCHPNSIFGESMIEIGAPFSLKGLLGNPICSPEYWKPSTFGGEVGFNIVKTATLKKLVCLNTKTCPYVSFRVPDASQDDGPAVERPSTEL
# Rattus norvegicus [15] = test: Anti-inflammatory activity in Carrageenan-induced paw edema in Swiss albino rat assessed as inhibition relative to control; type: functional
# Mus musculus [16] = test: Anti-inflammatory activity in Carrageenan-induced paw edema in PO dosed mouse at 100 mg/kg assessed as inhibition of edema measured after 3 hr relative to control; type: functional; design: scale not given: the % may be the effect or the level left
# Rattus norvegicus [17] = test: Anti-inflammatory activity in Carrageenan-induced paw edema in Wistar albino rat assessed as inhibition of edema measured after 1 hr relative to control; type: functional; design: scale not given: the % may be the effect or the level left
# Rattus norvegicus [18] = test: Anti-inflammatory activity in Carrageenan-induced paw edema in Wistar albino rat assessed as inhibition of edema measured after 5 hr relative to control; type: functional; design: scale not given: the % may be the effect or the level left
# Rattus norvegicus [19] = test: Anti-inflammatory activity in Carrageenan-induced paw edema in Wistar albino rat assessed as inhibition of edema measured after 3 hr relative to control; type: functional; design: scale not given: the % may be the effect or the level left
# [20] = target: T2, Prostaglandin G/H synthase 2 (Homo sapiens, UniProt P35354); test: Inhibition of human COX-2 assessed as by fluorescence based microplate reader assay
# T2 sequence (P35354 whole entry): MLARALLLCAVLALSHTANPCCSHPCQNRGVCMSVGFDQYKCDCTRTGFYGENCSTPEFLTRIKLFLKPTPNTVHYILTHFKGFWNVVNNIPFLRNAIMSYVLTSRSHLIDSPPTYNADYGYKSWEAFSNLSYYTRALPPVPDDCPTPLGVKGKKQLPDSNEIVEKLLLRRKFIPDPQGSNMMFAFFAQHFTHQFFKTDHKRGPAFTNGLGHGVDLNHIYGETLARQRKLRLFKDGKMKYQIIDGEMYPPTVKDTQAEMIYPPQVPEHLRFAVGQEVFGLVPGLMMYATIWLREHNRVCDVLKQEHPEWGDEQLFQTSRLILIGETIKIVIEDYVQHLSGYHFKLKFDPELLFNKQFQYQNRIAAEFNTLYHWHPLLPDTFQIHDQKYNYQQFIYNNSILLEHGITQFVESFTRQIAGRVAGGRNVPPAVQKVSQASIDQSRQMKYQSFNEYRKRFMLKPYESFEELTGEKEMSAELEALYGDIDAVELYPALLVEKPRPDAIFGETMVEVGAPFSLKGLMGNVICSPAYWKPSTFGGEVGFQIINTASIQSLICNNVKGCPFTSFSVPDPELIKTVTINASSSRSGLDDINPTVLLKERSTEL
# Rattus norvegicus [21] = test: Ulcerogenic activity in Swiss albino Wistar rat assessed as ulcer lesion score at 100 mg/kg, po; type: functional
# Mus musculus [22] = test: Anti-inflammatory activity against Carrageenan-induced paw edema in mouse model assessed as inhibition of edema at 100 mg/kg measured after 4 hrs relative to control; type: functional; design: scale not given: the % may be the effect or the level left
# RAW264.7 [23] = test: Anti-inflammatory activity in mouse RAW264.7 cells assessed as LPS-induced reduction in NO production measured after 24 hrs; type: functional, cell-based; settings: RAW264.7, 24 h
# RAW264.7 [24] = test: Anti-inflammatory activity in mouse RAW264.7 cells assessed as inhibition of LPS-induced NO production measured after 24 hrs; type: functional, cell-based; settings: RAW264.7, 24 h
# Mus musculus [25] = test: Anti-inflammatory activity in Carrageenan-induced paw edema mouse model assessed as inhibition of granuloma measured after 24 hrs relative to control; type: functional
# Mus musculus [26] = test: Analgesic activity in PO dosed Swiss albino mouse assessed as protection of paw edema measured after 2 hrs at 20 mg/kg relative to control; type: functional
# Rattus norvegicus [27] = test: Anti-inflammatory activity against formalin-induced foot paw edema in PO dosed rat at 10 mg/kg assessed as inhibition of edema measured after 1 hr relative to control; type: functional; design: scale not given: the % may be the effect or the level left
# Rattus norvegicus [28] = test: Anti-inflammatory activity against formalin-induced foot paw edema in Wistar rat at 5 mg/kg, po assessed as inhibition of edema measured after 4 hr relative to control; type: functional
# Rattus norvegicus [29] = test: Anti-inflammatory activity in Carrageenan-induced paw edema in PO dosed Swiss albino rat model at 10 mg/kg assessed as inhibition in volume of edema measured after 1 hrs relative to control; type: functional
# Rattus norvegicus [30] = test: Anti-inflammatory activity in Carrageenan-induced paw edema in Wistar albino rat assessed as inhibition of paw edema measured after 1 hr relative to control; type: functional
# Rattus norvegicus [31] = test: Anti-inflammatory activity in Carrageenan-induced paw edema in Wistar albino rat assessed as inhibition of paw edema measured after 2 hr relative to control; type: functional
# Rattus norvegicus [32] = test: Anti-inflammatory activity in Carrageenan-induced paw edema in Wistar albino rat assessed as inhibition of paw edema measured after 3 hr relative to control; type: functional
# Rattus norvegicus [33] = test: Anti-inflammatory activity against Carrageenan-induced paw edema in Wistar albino rat ulcerogenic activity assessed as reduction in severity index; type: functional
# [34] = target: T3, Polyunsaturated fatty acid 5-lipoxygenase (Homo sapiens, UniProt P09917); test: Inhibition of 5-LOX (unknown origin) after 5 mins by colorimetric method
# T3 sequence (P09917 whole entry): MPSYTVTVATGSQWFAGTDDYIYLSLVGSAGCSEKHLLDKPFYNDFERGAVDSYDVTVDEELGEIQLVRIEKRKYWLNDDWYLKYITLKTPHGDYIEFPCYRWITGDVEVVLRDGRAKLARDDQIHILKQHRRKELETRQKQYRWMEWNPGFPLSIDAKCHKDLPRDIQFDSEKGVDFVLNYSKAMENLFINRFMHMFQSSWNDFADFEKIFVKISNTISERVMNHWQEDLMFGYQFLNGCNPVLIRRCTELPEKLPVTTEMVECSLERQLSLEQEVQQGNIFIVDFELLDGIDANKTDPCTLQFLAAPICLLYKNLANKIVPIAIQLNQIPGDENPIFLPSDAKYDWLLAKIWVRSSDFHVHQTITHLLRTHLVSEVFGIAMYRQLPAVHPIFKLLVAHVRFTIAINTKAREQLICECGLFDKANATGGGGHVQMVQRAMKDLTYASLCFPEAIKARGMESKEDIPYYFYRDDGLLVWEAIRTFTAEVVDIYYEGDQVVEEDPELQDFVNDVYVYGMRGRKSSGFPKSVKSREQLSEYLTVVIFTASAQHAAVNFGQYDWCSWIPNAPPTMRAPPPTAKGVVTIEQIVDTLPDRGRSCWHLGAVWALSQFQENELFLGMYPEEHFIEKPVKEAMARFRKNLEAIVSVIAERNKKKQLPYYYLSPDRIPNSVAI
# Mus musculus [35] = test: Anti-inflammatory activity in Carrageenan-induced paw edema in […] mouse model assessed as inhibition of edema at 200 mg/kg, po relative to control; type: functional; design: scale not given: the % may be the effect or the level left
# Rattus norvegicus [36] = test: Anti-inflammatory activity in Carageenan-induced foot paw edema in Sprague-Dawley rat at 50 mg/kg assessed as reduction in paw edema volume relative to control; type: functional; design: scale not given: the % may be the effect or the level left
smiles,measurement,setting,value
CCc1c(-c2ccccc2)n(C(=O)c2ccc(F)cc2)c2ccc(S(C)(=O)=O)cc12,UI,Rattus norvegicus [1],7.3
same,inhibition (INH),Rattus norvegicus [2],90.5%
same,Selectivity Index,[3],65.7
C[C@H](NC(=O)c1nc2c(cnn2-c2ccccc2)c(=O)[nH]1)c1ccccc1,ED50,Rattus norvegicus [4],7.6 mg/kg
same,inhibition (INH),Rattus norvegicus [5],64%
same,Activity,Rattus norvegicus [6],1.5 mL
same,Activity,Rattus norvegicus [7],2.01 mL
same,Activity,Rattus norvegicus [8],1.05 mL
same,inhibition (INH),Rattus norvegicus [9],65%
same,IC50,[10],28.4 µM
same,Activity,Rattus norvegicus [11],1.69 mL
same,inhibition (INH),Rattus norvegicus [12],64%
same,inhibition (INH),Rattus norvegicus [13],64%
same,inhibition,[14],73.4%
same,inhibition (INH),Rattus norvegicus [15],51%
COc1ccc(NCc2nc3ccccc3n2C(=O)c2ccccc2)cc1,Activity,Mus musculus [16],40.3%
same,IC50,[14],2500 nM
CSc1nn(-c2ccc(S(C)(=O)=O)cc2)c2ncnc(NCC(=O)/N=C/c3ccco3)c12,Activity,Rattus norvegicus [17],2%
same,Activity,Rattus norvegicus [18],88%
same,Activity,Rattus norvegicus [19],79%
same,IC50,[10],123 µM
same,IC50,[20],100 nM
O=C(NCn1c(CCl)nc2ccccc21)c1ccc(Cl)cc1,Activity,Rattus norvegicus [21],12.25 mm
same,Activity,Mus musculus [22],66.66%
COc1cc(-c2cc3ccccc3nc2C(=O)c2ccc(F)cc2)cc(OC)c1OC,IC50,RAW264.7 [23],7.41 µM
same,IC50,RAW264.7 [24],15.4 µM
O=C(O)Cc1ccccc1Nc1c(Cl)cccc1Cl [DICLOFENAC],Activity,Rattus norvegicus [21],32.5 mm
same,inhibition (INH),Mus musculus [25],36.1%
same,Activity,Mus musculus [26],65%
same,Activity,Rattus norvegicus [27],30.43%
same,inhibition in vivo at 5 mg/kg,Rattus norvegicus [28],50%
Cc1c(-c2ccccc2)n(C(=O)c2ccc(Cl)cc2)c2ccc(S(C)(=O)=O)cc12,inhibition in vivo at 10 mg/kg,Rattus norvegicus [29],73.5%
Cc1ccccc1-c1nnc(Cn2c(CN3CCOCC3)nc3ccccc32)o1,inhibition (INH),Rattus norvegicus [30],62.29%
same,inhibition (INH),Rattus norvegicus [31],68.31%
same,inhibition (INH),Rattus norvegicus [32],31.25%
same,Activity,Rattus norvegicus [33],0.32 mm
Cc1ccc(N/N=C2\C(=N)N(c3ccc(S(N)(=O)=O)cc3)N=C2N)cc1,IC50,[34],1920 nM
same,Activity,Mus musculus [35],15%
O=C(NNC(=S)NCc1ccccc1)c1ccc(C2=CN3c4ccccc4NC3S2)nc1 (stereo not given),Activity,Rattus norvegicus [36],75.9%
same,IC50,[10],0.075 µM
